Reference: the NIST ThermoML archive (doi:10.1016/j.fluid.2012.12.014)
Numbers after ± are expanded uncertainties.

Details: Liquid, Closed cell (Static) method

O [water]
vapor or sublimation pressure (383.2 K): 142.5 ± 2.1 kPa
vapor or sublimation pressure (393.2 K): 198.7 ± 2.2 kPa
vapor or sublimation pressure (403.2 K): 270 ± 2.5 kPa
vapor or sublimation pressure (413.2 K): 361.7 ± 2.8 kPa
vapor or sublimation pressure (423.2 K): 476.1 ± 3 kPa
